# US20200368190A1, “METHODS OF TREATMENT” (Arena Pharmaceuticals, Inc., priority 2017, published 2020)
# Tests used:
# [1] = intravenous, over 9 weeks, cited from earlier work
# [2] = Clinical Trial 1: 22-week randomized, double-blind, placebo-controlled study with dose titration; format: in vivo
# Experimental: A 22-week randomized, double-blind, placebo-controlled study with a dose titration period of up to 9 weeks was conducted. Sixty-one individuals were randomized 2:1 Compound 1 to placebo. Right Heart Catheterization (RHC) measurements were obtained prior to study Day 1 of the dose titration period and at Week 22. The following values were obtained and recorded: pulmonary artery pressure (PAP) (systolic, diastolic, and mean), heart rate (HR), right atrial pressure (RAP), pulmonary capillary wedge pressure (PCWP) right ventricular pressure (RVP) and cardiac output (CO), pulmonary vascular resistance (PVR), arterial and mixed venous oxygen saturation […] (if applicable). Systemic vascular resistance (SVR) was estimated from blood pressure measurements.
# Primary efficacy endpoints for the study were: a) change from baseline in PVR after 22 weeks of treatment, and b) change from baseline in 6 MWD after 22 weeks of treatment. Compound 1 was administered as a capsule in 0.01, 0.02, 0.03, 0.04, and 0.10 mg dose strengths. The starting dose of Compound 1 was 0.01 mg twice daily. The dose of Compound 1 was titrated according to individual tolerability. If the initial dose was tolerated (0.01 mg twice daily), then the dose was increased once a week in the following fashion: 0.02 mg twice daily, 0.03 mg twice daily, 0.04 mg twice daily, 0.06 mg twice daily, 0.08 mg, 0.1 mg twice daily, 0.2 mg twice daily and 0.3 mg twice daily. The dose was optionally escalated to a possible maximum total daily dose of 0.6 mg (0.3 mg twice daily), pending tolerability.
# [3] = Clinical Trial 2: randomized, double-blind, placebo-controlled study in individuals with severe Raynaud's; format: in vivo; settings: titration scheme
# Experimental: A randomized, double-blind, placebo-controlled study is conducted in individuals with severe Raynaud's. Individuals are administered Compound 1 using a titration scheme. Compound 1 is determined to be efficacious for the treatment and/or prevention of Raynaud's.
# [4] = oral, titrated to the highest tolerated dose; individuals with systemic sclerosis; cited from earlier work
# [5] = intravenous; cited from earlier work
# [6] = after 22 weeks of treatment, capsule, titrated from 0.01 mg twice daily up to 0.3 mg twice daily
smiles,measurement,setting,value
CC#CCC(C)[C@H](O)/C=C/[C@@H]1[C@H]2C/C(=C/CCCC(=O)O)C[C@H]2C[C@H]1O (stereo partly drawn) [iloprost],improve severity score,[1]; vs. 19.7% comparator,34.8%
same,reduce weekly Raynaud phenomenon attacks,[1]; vs. 22.2% comparator,39.1%
"O=C(O)COC[C@H]1CC[C@H](COC(=O)N(c2ccccc2)c2ccc(Cl)cc2)CC1 [Compound 1, 2-(((1r,4r)-4-(((4-chlorophenyl)(phenyl)carbamoyloxy)methyl)cyclohexyl)methoxy)acetic acid]",adverse events observed in the study,"[2]; 22-week study, titrated up to 0.6 mg total daily dose",consistent with other prostacyclin treatments for the management of PAH
same,6-minute walk distance (6MWD),[2]; [6],numerical improvement
same,change from baseline in pulmonary vascular resistance (PVR) compared to placebo (primary endpoint),[2]; [6],statistically significant change from baseline
same,efficacy for the treatment and/or prevention of Raynaud's,[3],efficacious
CC(C)N(CCCCOCC(=O)NS(C)(=O)=O)c1cnc(-c2ccccc2)c(-c2ccccc2)n1 [selexipag],primary efficacy endpoint: reduction in the number of Raynaud's phenomenon attacks per week versus placebo,[4],did not meet the primary efficacy endpoint
CCCCC[C@H](O)/C=C/[C@@H]1[C@H]2C/C(=C/CCCC(=O)O)O[C@H]2C[C@H]1O [epoprostenol],frequency and duration of Raynaud phenomenon attacks,[5],reduced frequency and duration
same,"loss in clinical response, time after the last infusion",[5],8-10 weeks
